According to PMC6687188, “Novel lactate dehydrogenase inhibitors with in vivo efficacy against Cryptosporidium parvum” (PLoS Pathogens, 2019):
Like-named read-outs stand apart in the source and are kept apart here.

Target: recombinant CpLDH protein (Cryptosporidium parvum, UniProt Q9GT92, F198L/K295E/R251K)

SMILES	MEAN CpLDH INHIBITION (%)	MEAN CpLDH INHIBITION (%) (20 μM compound, 10 mM pyruvate, 1 mM NADH, values below 0 = augmenters)
C=C1[C@@H](C)[C@H]2[C@H](Cc3ccccc3)NC(=O)C23[C@H](OC(C)=O)/C=C/[C@@](C)(O)C[C@@H](C)C/C=C/[C@H]3[C@@H]1O (stereo partly shown) [NSC305222]	-217.96%	–
Nc1nc(N)c2cc(Sc3cccc(C(F)(F)F)c3)ccc2n1 [NSC305782]	-11.03%	–
CC(C)(C)NCCC(O)c1cc(C(F)(F)F)nc2c(C(F)(F)F)cccc12.O=P(O)(O)O (stereo not shown) [NSC305819]	-15.30%	–
CC1CCC2(OC1)OC1CC3C4CC=C5CC(OC6OC(CO)C(OC7OC(C)C(OC8OC(C)C(O)C(O)C8O)C(O)C7O)C(O)C6OC6OC(C)C(O)C(O)C6O)CCC5(C)C4CCC3(C)C1C2C (stereo not shown) [NSC306864]	-7.27%	–
O=NN(CCCl)C(=O)NCc1ccc[n+]([O-])c1 [NSC307454]	-54.21%	–
C=C(C)[C@@H]1CCc2c(O)c(O)c(=O)cc(C)c2C1 [NSC310618]	-54.97%	–
CC(=O)[O-].Cc1c2cc[n+](CCN3CCCCC3)cc2c(C)c2c1[nH]c1ccc(O)cc12 [NSC311153]	-30.69%	–
CCP(CC)CC.[Au+].[Cl-] [NSC313981]	-27.27%	–
COc1cc2c3c(n(C)c(=O)c2cc1OC)-c1cc2c(cc1C3=O)OCO2 [NSC314622]	-4.47%	–
O=C1c2ccccc2C(=O)c2c(O)c(NCCNCCO)cc(O)c21 [NSC316157]	-4.71%	–
C/C(=N\NC(=S)N1CCC1)c1ccccn1 [NSC319726]	–	-58.85%
O=C(N=Nc1c(O)[nH]c2c(Cl)cc(Cl)cc12)c1ccccc1O [NSC320864]	-26.08%	–
COc1ccc2c(c1[N+](=O)[O-])CC[C@@H]1[C@@H]2CC[C@]2(C)C(=O)CC[C@@H]12 [NSC321803]	-29.51%	–
Br.CCCCCC(CN1CCOCC1)C(=O)/C=C/c1ccccc1 (stereo not shown) [NSC322069]	-28.89%	–
C/C(=N\N=C(/[Se])N1CC2CCC(CC2)C1)c1ccccn1 [NSC323241]	-23.75%	–
CCCCS(=N)(=O)CCC(N)C(=O)O (stereo not shown) [NSC326231]	-24.75%	–
Clc1cc2nc[nH]c2cc1Cl [NSC326397]	-5.75%	–
CN(C)c1ccc(/C=N/N=C2\C(=O)Nc3c(Cl)cc(Cl)cc32)cc1 [NSC327697]	-11.09%	–
CC1CCOC(=O)/C=C/C=C/C(=O)OC2CC3OC4C5OC5(C)C(O)CC4(COC(=O)C1O)C2(C)C31CO1 (stereo not shown) [NSC328166]	-4.71%	–
CC(=O)O[C@@H]1[C@@H](O)[C@H](O[C@H]2[C@H](OC(=O)[C@H]3CC[C@H]4[C@@H](C3)O[C@@]3(C[C@H](OC(=O)/C=C/c5ccccc5)[C@H](C)CO3)[C@]43CO3)O[C@H](C)[C@@H](O)[C@@H]2OC(C)=O)O[C@H](C)[C@H]1O [NSC328426]	-30.81%	–
Cc1c(Cl)cccc1NC(=O)c1cccc([N+](=O)[O-])c1O [NSC328477]	-31.70%	–
CC1(C)CC2=NO[Se]3=C2C(=NO3)C1 [NSC328587]	-53.59%	–
CCOc1cccc(/C=N/N=C2\C(=O)Nc3c(Cl)cc(Cl)cc32)c1O [NSC329277]	-1.09%	–
O=C1Nc2c(Cl)cc(Cl)cc2/C1=N/N=C/c1ccco1 [NSC329279]	-39.07%	–

SMILES	MEAN CpLDH INHIBITION (%)	MEAN CpLDH INHIBITION (%) (20 μM compound, 10 mM pyruvate, 1 mM NADH, values below 0 = augmenters)
C=C1C(=O)O[C@H]2/C=C(/C)C(=O)C[C@@H]3OC(C)(C)O[C@@]3(C)C[C@H](OC(=O)/C(C)=C\C)[C@H]12 [NSC329696]	-30.73%	–
COC1CC(C)C(OC)c2cc(O)cc(c2O)NC(=O)/C(C)=C\C=C/C(C)C(OC(N)=O)/C(C)=C\C(C)C1OC (stereo not shown) [NSC330500]	-19.04%	–
COc1cc2c(c(O)c1OC)-c1c(cc(OC)c(OC)c1OC)C[C@@H](C)[C@@H](C)C2 [NSC330515]	-43.86%	–
COc1cc2c(c(OC)c1OC)-c1c(cc3c(c1OC)OCO3)CC(C)C(C)(O)C2OC(=O)c1ccccc1 (stereo not shown) [NSC330516]	-37.93%	–
CC(=O)O[C@H]1C(=O)[C@@]2(C)[C@H]([C@H](OC(=O)c3ccccc3)[C@]3(O)C[C@H](O)C(C)=C1C3(C)C)[C@]1(OC(C)=O)CO[C@@H]1C[C@@H]2O [NSC330753]	-63.01%	–
CCOC(=O)Nc1cc2c(c(N)n1)N=C(c1ccccc1)CN2 [NSC330770]	-9.40%	–
CCN(CC)CCCC(C)NC(=O)c1ccc2c(c1)C(=O)c1ccccc1C2=O.Cl (stereo not shown) [NSC331757]	-61.61%	–
CO[C@@H](/C(C)=C/C=C/C(C)=C/c1coc(C)n1)[C@@H](C)[C@@H]1C[C@H](O)[C@@]2(C)O[C@@H]2/C=C/[C@@H](C)[C@H]2C[C@H](CC(=O)O2)C[C@@H]2O[C@H]2C(=O)O1 [NSC332598]	-143.77%	–
COC(=O)NC1C(C)OC(OC2C/C=C(/C)C3C=CC4C(OC5CC(OC6CCC(OC7CC(O)C(OC8CCC(O)C(C)O8)C(C)O7)C(C)O6)C(OC(C)=O)C(C)O5)C(C)CC(C)C4C3(C)/C(O)=C3/C(=O)OC4(CC(C=O)=CC(O)C4/C=C\2C)C3=O)CC1(C)[N+](=O)[O-] (stereo not shown) [NSC333856]	-2.71%	–
Cc1c2ccnc(C(N)=O)c2c(C)c2c1[nH]c1ccccc12.Cl [NSC335142]	-27.72%	–
O=C1NC(=S)NC(=O)C1C(=O)Nc1ccccc1 [NSC336628]	-66.49%	–
O=C1c2ccccc2-c2c1c1ccccc1c(=O)n2Cc1ccccc1 [NSC337612]	-26.65%	–
C(=N\NC1=NCCN1)/c1c2ccccc2c(/C=N/NC2=NCCN2)c2ccccc12 [NSC337766]	-53.76%	–
CN(C)c1ccc2c(SCC(=O)OCC(=O)[C@@]3(O)CC[C@H]4[C@@H]5CCC6=CC(=O)C=C[C@]6(C)[C@H]5C(=O)C[C@@]43C)c3ccc(N(C)C)cc3nc2c1 [NSC337851]	-16.37%	–
Oc1cc2c3c(c1)c1cc4c(cc1c[n+]3CC2)OCO4.[Cl-] [NSC338259]	-17.29%	–
COc1nc(C(Cl)(Cl)Cl)c(Cl)c(OC)c1Cl [NSC338720]	0.02%	–
O=C(CCCN1CCC(C(O)c2ccc(F)cc2)CC1)c1ccc(F)cc1 (stereo not shown) [NSC343513]	-0.97%	–
NP(=O)(Oc1c2occc2cc2ccc(=O)oc12)N(CCCl)CCCl (stereo not shown) [NSC345081]	-64.34%	–
CC1Oc2cc3c(-c4c(O)cc(O)c5c(O)c6c(cc45)OC(C)C(C)C6=O)c(O)cc(O)c3c(O)c2C(=O)C1C (stereo not shown) [NSC345647]	-176.19%	–
O=[Se]([O-])[O-].[Na+].[Na+] [NSC347466]	-3.84%	–
O=C1N[C@@H]2C(=C[C@H](O)[C@@H](O)[C@H]2O)c2cc3c(cc21)OCO3 [NSC349155]	-5.62%	–
O=C1N[C@H]2[C@H](O)[C@H](O)[C@@H](O)[C@H](O)[C@@H]2c2cc3c(c(O)c21)OCO3 [NSC349156]	-36.89%	–
COC1=C(C)C(=O)C2=C(C1=O)C(CO)N1C(C#N)C3CC4C(C1C2N1CCOC41)N3C (stereo not shown) [NSC349644]	-64.47%	–
Cc1ccc(S(=O)(=O)ON=C2CC(c3ccccc3)N(C)C(c3ccccc3)C2)cc1 (stereo not shown) [NSC351306]	-39.05%	–

SMILES	MEAN CpLDH INHIBITION (%)	MEAN CpLDH INHIBITION (%) (20 μM compound, 10 mM pyruvate, 1 mM NADH, values below 0 = augmenters)
COc1cc(C(C)c2cc3c(cc2OCCO)OCO3)cc(OC)c1OC (stereo not shown) [NSC352876]	-6.93%	–
Nc1ncnc2c([C@@H]3O[C@H](CO)[C@@H](O)[C@H]3O)c[nH]c12 [NSC352890]	-27.24%	–
CCN(CC)CC.CCOc1ccc(NC(=O)N=C=[N-])cc1.[CH-]1CCCCC1.[CH-]1CCCCC1.[CH-]1CCCCC1.[Cl-].[Sn+4] [NSC353527]	-42.92%	–
C=Cc1cc(OC)c2c(c1)c(=O)oc1c2cc(OC)c2c(O)ccc(C3OC(C)C(O)C(C)(O)C3O)c21 (stereo not shown) [NSC354844]	-68.14%	–
NC(=O)C1=C[C@H]2[C@@H]3C=C[C@@]2(O)C(=O)O[C@@H]3O1 [NSC357683]	-9.72%	–
CCN(CC)Cc1cc(N=Nc2c(O)ccc3c(N=Nc4ccc(O)c(CN(CC)CC)c4)c(O)ccc23)ccc1O.Cl [NSC359463]	-17.14%	–
COC(=O)C1(C)CCCC2(C)C3CCC4CC3(C=C4CO)CCC12 (stereo not shown) [NSC360861]	-29.11%	–
CN1CCN(CN2C(=O)C3C4C=CC(C3C2=O)C2C3C(=O)N(CN5CCN(C)CC5)C(=O)C3C42)CC1 (stereo not shown) [NSC361813]	-202.91%	–
COC(=O)NC1C(C)OC(OC2C/C=C(/C)C3C=CC4C(OC5CC(OC6CC(O)C(OC7CC(O)C(OC)C(C)O7)C(C)O6)C(O)C(C)O5)C(C)CC(C)C4C3(C)/C(O)=C3\C(=O)OC4(CC(C)C(CO)=CC4/C=C\2C)C3=O)CC1(C)[N+](=O)[O-] (stereo not shown) [NSC363182]	-79.07%	–
CC1(C)[C@@H]2CC[C@@]1(CS(=O)(=O)O)C(=O)C2.CN1[C@@H](c2ccccc2)CC(=NO)C[C@H]1c1ccccc1 [NSC363744]	-9.54%	–
Cl.O=C1c2cccc(NCCCNCCO)c2C(=O)c2cccc(NCCCNCCO)c21 [NSC363998]	-2.96%	–
N#CC(=S)Nc1ccc(F)cc1 [NSC369317]	-8.49%	–
Cc1ccc(NC(=S)C#N)c(C)c1 [NSC369318]	-37.61%	–
COc1ccc2c(c1)CCc1c-2n[nH]c1-c1[nH]nc2c1CCc1cc(OC)ccc1-2 [NSC371846]	-16.04%	–
CN1C(Cl)=NS(=O)(=O)c2ccccc21 [NSC373853]	-15.72%	–
Cc1ccc(NC(=O)c2cc3ccccc3c(N=Nc3ccccc3O)c2O)c(C)c1 [NSC374898]	-39.33%	–
CC1(C)CCC[C@]2(C)C3=C(CC[C@@H]12)C(=O)OC3 [NSC375294]	-39.63%	–
Nc1ccn([C@@H]2C=C(CO)[C@@H](O)[C@H]2O)c(=O)n1 [NSC375575]	-28.69%	–
COc1cc2oc3cc(=O)cc4oc(-c5ccccc5)cc(c2c2c1CCC(c1ccccc1)O2)c43 (stereo not shown) [NSC376248]	-15.03%	–
C/C(=N\NC(=S)N1CCN(C2CCCCCC2)CC1)c1ccccn1 [NSC376265]	-34.26%	–
CC1(C)NC(=O)N(CCCCCCN2C(=O)NC(C)(C)C2=O)C1=O [NSC376791]	-26.30%	–
N#CC(=S)Nc1ccc(Cl)c(Cl)c1 [NSC379531]	-50.91%	–
